Results on 15 compounds are retold here after patent US20250154138A1, “Small Molecule IL-17A Modulators” (BeiGene, Ltd., priority 2022, published 2025).

Experiment [1] has as its target human IL-17A / human IL-17RA (Homo sapiens (Human), UniProt Q16552). Put plainly: Human IL-17A biochemical assay (HTRF, blocking of IL-17A binding to IL-17RA). As to conditions: 0.4 nM IL-17A, 0.3 nM IL-17RA, max compound concentration 10 uM. An outline of the steps:
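Inhibition of IL-17A binding to IL-17RA is measured by HTRF using 0.4 nM IL-17A, 0.3 nM IL-17RA and a 3 h compound pre-incubation at room temperature, pH 7.5. IC50 values come from four-parameter logistic fitting.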
On the technique in general: Time-resolved FRET reads energy transfer from a long-lived donor to a nearby acceptor.

In experiment [2] the test system is IL-17-induced GROα secretion from HT-29 cells. The experiment can be described thus: GROα release assay in human colorectal adenocarcinoma epithelial cell (HT-29, ELISA). It is filed as cell-based. As to conditions: Homo sapiens, HT-29, 48 h, 10 ng/mL IL-17A, highest concentration 10 μM, read-out: Cellular assay HT29 cell/CXCL1 IC50. An outline of the steps:
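HT-29 cells were exposed 48 h at 37°C to IL-17A (final 10 ng/mL) preincubated 15 min with compound (4-fold dilutions, top 10 μM). Secreted GROα was quantified by ELISA against a standard curve, and IC50 obtained by four-parameter fitting.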
Background: ELISA stands for enzyme-linked immunosorbent assay.

human IL-17A / human IL-17RA, sequence (Q16552 24-155): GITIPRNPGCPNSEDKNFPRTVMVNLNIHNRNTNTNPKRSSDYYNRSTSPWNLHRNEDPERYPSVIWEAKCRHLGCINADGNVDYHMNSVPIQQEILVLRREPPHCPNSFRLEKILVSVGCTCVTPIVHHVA

As to `CNC(=O)C1(N2CC3(CC3)CNC2=O)Cc2ccc(NC(=O)[C@@H](NC(=O)c3ccc(C#N)n3C3CC3)C3CCCCC3)cc2C1` (stereo partly drawn) [Example 157, 5-cyano-N-((1S)-1-cyclohexyl-2-((2-(methylcarbamoyl)-2-(6-oxo-5,7-diazaspiro[2.5]octan-5-yl)-2,3-dihydro-1H-inden-5-yl)amino)-2-oxoethyl)-1-cyclopropyl-1H-pyrrole-2-carboxamide], the IC50 in experiment [1] stood at 37 nM; in experiment [2], 398 nM.
On to `CNC(=O)C1(N2CC3(CC3)CNC2=O)Cc2ccc(NC(=O)[C@@H](NC(=O)C(F)(F)c3cccc(C#N)c3)C3CCCCC3)cc2C1` (stereo partly drawn) [Example 158, 5-((S)-2-(2-(3-cyanophenyl)-2,2-difluoroacetamido)-2-cyclohexylacetamido)-N-methyl-2-(6-oxo-5,7-diazaspiro[2.5]octan-5-yl)-2,3-dihydro-1H-indene-2-carboxamide], for which the IC50 in experiment [1] is 123 nM; in experiment [2], 48.5 nM.
With `COCC1(N2CC3(CC3)CNC2=O)Cc2ccc(NC(=O)[C@@H](NC(=O)c3ccnn3C)C(C3CC3)C3CC3)cc2C1` (stereo partly drawn) [Example 159, N-((2S)-1,1-dicyclopropyl-3-((2-(methoxymethyl)-2-(6-oxo-5,7-diazaspiro[2.5]octan-5-yl)-2,3-dihydro-1H-inden-5-yl)amino)-3-oxopropan-2-yl)-1-methyl-1H-pyrazole-5-carboxamide], the IC50 in experiment [1] stood at 53.2 nM; in experiment [2], 187 nM.
For `COCC1(N2CC3(CC3)CNC2=O)Cc2ccc(NC(=O)[C@@H](NC(=O)c3ccnn3C(C)C)C(C3CC3)C3CC3)cc2C1` (stereo partly drawn) [Example 160, N-((2S)-1,1-dicyclopropyl-3-((2-(methoxymethyl)-2-(6-oxo-5,7-diazaspiro[2.5]octan-5-yl)-2,3-dihydro-1H-inden-5-yl)amino)-3-oxopropan-2-yl)-1-isopropyl-1H-pyrazole-5-carboxamide] the same measures were 110 nM and 93.1 nM.
Taken in the same sequence, the figures for `Cn1nccc1C(=O)N[C@H](C(=O)Nc1ccc2c(c1)CC(CNc1ccccc1)(N1CC3(CC3)CNC1=O)C2)C1CCCCC1` (stereo partly drawn) [Example 161, N-((1S)-1-cyclohexyl-2-oxo-2-((2-(6-oxo-5,7-diazaspiro[2.5]octan-5-yl)-2-((phenylamino)methyl)-2,3-dihydro-1H-inden-5-yl)amino)ethyl)-1-methyl-1H-pyrazole-5-carboxamide] were 121 nM and 146 nM.
For `CC(C)[C@@H]1CN(C2Cc3ccc(NC(=O)[C@@H](NC(=O)c4ccnn4C)C4CCCCC4)cc3C2)C(=O)N1` (stereo partly drawn) [Example 162, N-((1S)-1-cyclohexyl-2-((2-((R)-4-isopropyl-2-oxoimidazolidin-1-yl)-2,3-dihydro-1H-inden-5-yl)amino)-2-oxoethyl)-1-methyl-1H-pyrazole-5-carboxamide] the same measures were 540 nM and 1060 nM.
Take `CC(C)[C@@H]1CN(C2(C(=O)NCc3ccccn3)Cc3ccc(NC(=O)[C@@H](NC(=O)c4ccnn4C)C4CCCCC4)cc3C2)C(=O)N1` (stereo partly drawn) [Example 163, N-((1S)-1-cyclohexyl-2-((2-((R)-4-isopropyl-2-oxoimidazolidin-1-yl)-2-((pyridin-2-ylmethyl)carbamoyl)-2,3-dihydro-1H-inden-5-yl)amino)-2-oxoethyl)-1-methyl-1H-pyrazole-5-carboxamide]: the results for the IC50 in experiment [1] and in experiment [2] were 19 nM and 38.8 nM, respectively.
For `CNC(=O)C1(N2CC3(CC3)CNC2=O)Cc2ccc(NC(=O)C(NC(=O)c3ccnn3C)C3CCC(C(F)(F)F)CC3)cc2C1` (stereo not drawn) [Example 164, 1-methyl-N-(2-((2-(methylcarbamoyl)-2-(6-oxo-5,7-diazaspiro[2.5]octan-5-yl)-2,3-dihydro-1H-inden-5-yl)amino)-2-oxo-1-(4-(trifluoromethyl)cyclohexyl)ethyl)-1H-pyrazole-5-carboxamide] the same measures were 35.2 nM and 112 nM.
`CC[C@H]1CC[C@H]([C@H](NC(=O)c2ccnn2C)C(=O)Nc2ccc3c(c2)CC(COC)(N2CC4(CC4)CNC2=O)C3)CC1` (stereo partly drawn) [Example 165, N-((1S)-1-((1r,4S)-4-ethylcyclohexyl)-2-((2-(methoxymethyl)-2-(6-oxo-5,7-diazaspiro[2.5]octan-5-yl)-2,3-dihydro-1H-inden-5-yl)amino)-2-oxoethyl)-1-methyl-1H-pyrazole-5-carboxamide]: the IC50 in experiment [1] stood at 173 nM; in experiment [2] it was 322 nM.
For `CC[C@@H]1CN(C2(C(=O)NC)Cc3ccc(NC(=O)[C@@H](NC(=O)c4ccnn4C)C(C4CC4)C4CC4)cc3C2)C(=O)N1` (stereo partly drawn) [Example 166, N-((2S)-1,1-dicyclopropyl-3-((2-((R)-4-ethyl-2-oxoimidazolidin-1-yl)-2-(methylcarbamoyl)-2,3-dihydro-1H-inden-5-yl)amino)-3-oxopropan-2-yl)-1-methyl-1H-pyrazole-5-carboxamide] the same measures were 169 nM and 135 nM.
Taken in the same sequence, the figures for `CNC(=O)C1(N2CC3(CC3)CNC2=O)Cc2ccc(NC(=O)[C@@H](NC(=O)c3c(F)cnn3C)C3CCCCC3)cc2C1` (stereo partly drawn) [Example 167, N-((1S)-1-cyclohexyl-2-((2-(methylcarbamoyl)-2-(6-oxo-5,7-diazaspiro[2.5]octan-5-yl)-2,3-dihydro-1H-inden-5-yl)amino)-2-oxoethyl)-4-fluoro-1-methyl-1H-pyrazole-5-carboxamide] were 127 nM and 220 nM.
For `CNC(=O)C1(N2CC3(CC3)CNC2=O)Cc2ccc(NC(=O)C(NC(=O)c3ccnn3C)C3CCC(CC(F)(F)F)CC3)cc2C1` (stereo not drawn) [Example 168, 1-methyl-N-(2-((2-(methylcarbamoyl)-2-(6-oxo-5,7-diazaspiro[2.5]octan-5-yl)-2,3-dihydro-1H-inden-5-yl)amino)-2-oxo-1-(4-(2,2,2-trifluoroethyl)cyclohexyl)ethyl)-1H-pyrazole-5-carboxamide] the same measures were 32.8 nM and 60.5 nM.
As to `CC(C)[C@@H]1CN(C2(c3nc4ccccc4[nH]3)Cc3ccc(NC(=O)[C@@H](NC(=O)c4ccnn4C)C4CCCCC4)cc3C2)C(=O)N1` (stereo partly drawn) [Example 169, N-((1S)-2-((2-(1H-benzo[d]imidazol-2-yl)-2-((R)-4-isopropyl-2-oxoimidazolidin-1-yl)-2,3-dihydro-1H-inden-5-yl)amino)-1-cyclohexyl-2-oxoethyl)-1-methyl-1H-pyrazole-5-carboxamide], the IC50 turned out to be 56.4 nM in experiment [1] and 65.2 nM in experiment [2].
For `CC(C)C1(N2CC3(CC3)CNC2=O)Cc2ccc(NC(=O)[C@@H](NC(=O)c3ccnn3C)C3CCCCC3)cc2C1` (stereo partly drawn) [Example 170, N-((1S)-1-cyclohexyl-2-((2-isopropyl-2-(6-oxo-5,7-diazaspiro[2.5]octan-5-yl)-2,3-dihydro-1H-inden-5-yl)amino)-2-oxoethyl)-1-methyl-1H-pyrazole-5-carboxamide] the same measures were 169 nM and 227 nM.
Take `CC[C@H]1CC[C@H]([C@H](NC(=O)c2ccnn2C)C(=O)Nc2ccc3c(c2)CC(C(=O)NC)(N2CC4(CC4)CNC2=O)C3)CC1` (stereo partly drawn) [Example 171, N-((1S)-1-((1r,4S)-4-ethylcyclohexyl)-2-((2-(methylcarbamoyl)-2-(6-oxo-5,7-diazaspiro[2.5]octan-5-yl)-2,3-dihydro-1H-inden-5-yl)amino)-2-oxoethyl)-1-methyl-1H-pyrazole-5-carboxamide]: the IC50 amounted to 7 nM in experiment [1] and 9.7 nM in experiment [2].
